Assay results reported in ChEMBL document CHEMBL1201862, “PubChem BioAssay data set” (2004).
Calls of active or inactive are those of the source.

Experiments:
[1] = luciferase reporter signal suppression in cells – H4 neuroglioma cells, luminescence, dose response (AID 1990); assay type: functional, cell-based
[2] = molecular target: T1, Microphthalmia-associated transcription factor (Homo sapiens, UniProt O75030); experiment: reducers of TRPM1 reporter luminescence, concentration series – cell-based, SK-MEL-5, cherry-picked, set 3, MITF inhibitor project, dose response (AID 493073); assay type: functional;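 note: SK-MEL-5 melanoma cells with luciferase driven by the MITF target TRPM1 promoter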
T1 sequence (O75030 whole entry): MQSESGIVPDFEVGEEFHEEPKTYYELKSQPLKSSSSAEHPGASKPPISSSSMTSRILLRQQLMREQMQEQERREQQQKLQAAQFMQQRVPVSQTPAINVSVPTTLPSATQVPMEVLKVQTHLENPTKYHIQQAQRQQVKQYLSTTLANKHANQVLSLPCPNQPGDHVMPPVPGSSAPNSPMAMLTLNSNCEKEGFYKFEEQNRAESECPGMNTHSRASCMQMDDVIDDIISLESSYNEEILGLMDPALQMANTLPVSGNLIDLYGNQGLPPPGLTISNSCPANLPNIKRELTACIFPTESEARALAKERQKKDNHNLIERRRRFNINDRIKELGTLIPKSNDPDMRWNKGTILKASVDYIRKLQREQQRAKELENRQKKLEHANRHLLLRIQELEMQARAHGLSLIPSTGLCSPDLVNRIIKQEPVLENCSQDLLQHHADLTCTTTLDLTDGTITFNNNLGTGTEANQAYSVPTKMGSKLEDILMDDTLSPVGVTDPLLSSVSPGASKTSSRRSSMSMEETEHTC

[3] = alpha-synuclein stem-loop luciferase translation blockers – H4 neuroglioma cells, luminescence, confirmation (AID 1988); assay type: functional, cell-based
[4] = Luminescence Cell-Based Dose Response HTS to Identify Inhibitors of 5'UTR Stem-Loop Driven Prion Protein mRNA Translation in H4 Neuroglioblastoma Cells. [Related pubchem assays: 1827 (Project Summary), 1813 (Primary HTS)]; assay type: functional
[5] = system: A-375; experiment: MITF: Counter assay: A375 proliferation Measured in Cell-Based System Using Plate Reader - 2084-03_Inhibitor_Dose_DryPowder_Activity. [Related pubchem assays (depositor defined):AID488944]; assay type: functional; conditions: Homo sapiens
[6] = system: A-375; experiment: proliferation inhibition in MITF-low A375 cells – cell-based, cherry-pick samples, set 2, counter-screen for MITF modulator project, dose response (AID 540335); assay type: functional; conditions: Homo sapiens
[7] = molecular target: Intestinal-type alkaline phosphatase (Mus musculus, UniProt P24822); experiment: PubChem AID 488874; assay type: functional
[8] = molecular target: T2, Alkaline phosphatase, tissue-nonspecific isozyme (Homo sapiens, UniProt P05186); experiment: activation of tissue-nonspecific alkaline phosphatase – biochemical, TNAP isozyme, human IAP uHTS hits, selectivity assay for human IAP activator project, dose response (AID 488886); assay type: functional;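 note: potency of compounds raising TNAP activity as a selectivity check on IAP activators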
T2 sequence (P05186 whole entry): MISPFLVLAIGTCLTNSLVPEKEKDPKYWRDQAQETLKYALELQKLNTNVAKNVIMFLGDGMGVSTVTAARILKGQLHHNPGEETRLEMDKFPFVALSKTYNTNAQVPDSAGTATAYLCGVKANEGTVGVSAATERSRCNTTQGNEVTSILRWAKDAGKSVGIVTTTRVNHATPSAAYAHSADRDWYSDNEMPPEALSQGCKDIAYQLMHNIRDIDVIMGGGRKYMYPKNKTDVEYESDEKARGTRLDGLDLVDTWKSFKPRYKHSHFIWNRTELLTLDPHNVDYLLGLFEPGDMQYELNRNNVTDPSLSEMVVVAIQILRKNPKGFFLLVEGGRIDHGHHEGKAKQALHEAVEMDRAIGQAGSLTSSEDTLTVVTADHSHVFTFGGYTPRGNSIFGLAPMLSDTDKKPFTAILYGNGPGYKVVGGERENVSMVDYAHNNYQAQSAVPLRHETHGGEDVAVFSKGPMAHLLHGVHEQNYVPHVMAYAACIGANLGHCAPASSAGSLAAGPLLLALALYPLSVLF

[9] = molecular target: T3, Intestinal-type alkaline phosphatase (Homo sapiens, UniProt P09923); experiment: human intestinal alkaline phosphatase activators, dose response, biochemical, luminescence, uHTS hits (AID 463120); assay type: functional
[10] = molecular target: T4, Caspase-6 (Homo sapiens, UniProt P55212); experiment: inhibition of CASP6 peptide cleavage – biochemical, VEID-R110 fluorescence, cherry-pick, dose response (AID 720632)
T4 sequence (P55212 whole entry): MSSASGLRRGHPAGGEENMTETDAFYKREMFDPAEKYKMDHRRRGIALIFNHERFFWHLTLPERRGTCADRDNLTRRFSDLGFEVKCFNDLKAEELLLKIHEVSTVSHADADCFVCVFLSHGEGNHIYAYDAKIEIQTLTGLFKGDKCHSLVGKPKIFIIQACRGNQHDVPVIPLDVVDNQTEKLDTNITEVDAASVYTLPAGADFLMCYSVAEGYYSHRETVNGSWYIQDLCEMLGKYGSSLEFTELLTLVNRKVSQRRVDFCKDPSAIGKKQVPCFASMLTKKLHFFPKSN

[11] = molecular target: T3, Intestinal-type alkaline phosphatase; experiment: activation of human intestinal alkaline phosphatase – biochemical, luminescent, uHTS hits, set 2, dose response (AID 488817); assay type: functional;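 note: potency of activators that raise enzyme activity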
[12] = molecular target: T5, G-protein coupled receptor 35 (Homo sapiens, UniProt Q9HC97); experiment: SAR Analysis for the identification of Selective Antagonists of ERK1/2 Activity in GPR35-Overexpressing U2OS Cells. [Related pubchem assays: 2079, 2058 ]; assay type: functional, cell-based
[13] = molecular target: G-protein coupled receptor 55 (Homo sapiens, UniProt Q9Y2T6); experiment: blockers of GPR55 signalling, imaged – imaging, image-based, counter-screen for GPR35 antagonist project, SAR follow-up (AID 2397); assay type: functional
[14] = molecular target: T5, G-protein coupled receptor 35; experiment: inhibition of zaprinast-stimulated GPR35 beta-arrestin translocation – imaging, U2OS, beta-arrestin-GFP, zaprinast agonist, primary screen (AID 2058); assay type: functional;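 note: antagonist potency meaning inhibition of agonist-induced arrestin redistribution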
[15] = molecular target: T6, Kappa-type opioid receptor (Homo sapiens, UniProt P41145); assay type: functional
[16] = molecular target: Mu-type opioid receptor (Homo sapiens, UniProt P35372); experiment: HTS Image-Based Screen for Agonists of the MOR Receptor. [Related pubchem assays (depositor defined):AID1777, AID1785, AID1786, AID2133]; assay type: functional;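 note: imaging of beta-arrestin GFP recruitment into spots after receptor activation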
[17] = molecular target: T7, Delta-type opioid receptor (Homo sapiens, UniProt P41143); experiment: HTS Image-Based Screen for Antagonists of the DOR Receptor. [Related pubchem assays (depositor defined):AID1777, AID1785, AID1786, AID2133]; assay type: functional
[18] = molecular target: T7, Delta-type opioid receptor; experiment: HTS Image-Based Screen for Agonists of the DOR Receptor. [Related pubchem assays (depositor defined):AID1777, AID1786, AID2133]; assay type: functional
[19] = molecular target: T8, Latent membrane protein 1 (Human herpesvirus 4 (strain B95-8), UniProt P03230); experiment: LMP1 TES1 pathway selectivity over dsRED control – imaging, HEK293T, dual-color eGFP/dsRED, cherry-picks, selectivity assay for LMP1 NF-kB inhibitor project, dose response (AID 588398); assay type: functional, cell-based
T8 sequence (P03230 whole entry): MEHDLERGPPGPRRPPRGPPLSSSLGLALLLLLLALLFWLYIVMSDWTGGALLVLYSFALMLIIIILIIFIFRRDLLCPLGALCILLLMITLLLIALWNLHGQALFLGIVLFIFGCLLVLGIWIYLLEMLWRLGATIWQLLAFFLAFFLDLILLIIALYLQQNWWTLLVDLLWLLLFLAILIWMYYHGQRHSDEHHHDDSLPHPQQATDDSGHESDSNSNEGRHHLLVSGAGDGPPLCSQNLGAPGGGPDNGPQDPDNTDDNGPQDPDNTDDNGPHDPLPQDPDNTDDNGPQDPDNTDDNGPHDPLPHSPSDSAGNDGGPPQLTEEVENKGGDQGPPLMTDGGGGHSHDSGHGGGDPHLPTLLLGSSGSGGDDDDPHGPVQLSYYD

[20] = molecular target: Beta-galactosidase (Escherichia coli, UniProt Q8VNN2); assay type: functional
[21] = molecular target: T6, Kappa-type opioid receptor; assay type: functional; remark: listed apart in the source

T6 sequence (P41145 whole entry): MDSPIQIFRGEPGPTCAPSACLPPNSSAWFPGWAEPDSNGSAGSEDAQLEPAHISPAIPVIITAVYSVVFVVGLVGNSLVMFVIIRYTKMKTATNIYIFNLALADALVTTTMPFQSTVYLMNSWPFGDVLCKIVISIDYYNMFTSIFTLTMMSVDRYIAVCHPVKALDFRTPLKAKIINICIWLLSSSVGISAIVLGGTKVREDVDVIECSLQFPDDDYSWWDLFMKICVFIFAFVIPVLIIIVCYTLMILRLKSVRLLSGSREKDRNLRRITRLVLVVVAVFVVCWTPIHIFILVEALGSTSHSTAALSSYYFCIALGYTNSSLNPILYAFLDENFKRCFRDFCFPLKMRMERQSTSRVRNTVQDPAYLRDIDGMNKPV
T5 sequence (Q9HC97 whole entry): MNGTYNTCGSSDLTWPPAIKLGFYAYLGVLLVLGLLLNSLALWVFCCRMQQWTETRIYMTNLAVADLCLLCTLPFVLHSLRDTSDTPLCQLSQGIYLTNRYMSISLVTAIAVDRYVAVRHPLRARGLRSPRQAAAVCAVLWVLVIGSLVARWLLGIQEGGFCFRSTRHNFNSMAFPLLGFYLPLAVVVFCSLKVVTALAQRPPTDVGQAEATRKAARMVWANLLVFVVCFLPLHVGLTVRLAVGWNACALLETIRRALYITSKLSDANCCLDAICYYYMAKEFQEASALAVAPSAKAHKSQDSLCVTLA
T3 sequence (P09923 whole entry): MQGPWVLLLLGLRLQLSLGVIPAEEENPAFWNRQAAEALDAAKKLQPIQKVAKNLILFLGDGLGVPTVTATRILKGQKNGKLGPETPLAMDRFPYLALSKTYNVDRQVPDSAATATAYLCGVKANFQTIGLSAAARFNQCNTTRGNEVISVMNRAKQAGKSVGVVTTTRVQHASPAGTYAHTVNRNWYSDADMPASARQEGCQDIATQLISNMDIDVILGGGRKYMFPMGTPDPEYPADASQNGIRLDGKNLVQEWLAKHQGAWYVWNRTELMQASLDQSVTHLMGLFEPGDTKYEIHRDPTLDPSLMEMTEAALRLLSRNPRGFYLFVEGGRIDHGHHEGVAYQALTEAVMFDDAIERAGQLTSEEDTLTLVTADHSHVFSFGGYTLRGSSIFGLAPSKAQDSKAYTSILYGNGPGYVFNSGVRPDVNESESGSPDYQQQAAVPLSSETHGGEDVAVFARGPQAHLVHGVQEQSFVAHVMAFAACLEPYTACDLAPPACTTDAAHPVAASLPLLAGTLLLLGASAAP
T7 sequence (P41143 whole entry): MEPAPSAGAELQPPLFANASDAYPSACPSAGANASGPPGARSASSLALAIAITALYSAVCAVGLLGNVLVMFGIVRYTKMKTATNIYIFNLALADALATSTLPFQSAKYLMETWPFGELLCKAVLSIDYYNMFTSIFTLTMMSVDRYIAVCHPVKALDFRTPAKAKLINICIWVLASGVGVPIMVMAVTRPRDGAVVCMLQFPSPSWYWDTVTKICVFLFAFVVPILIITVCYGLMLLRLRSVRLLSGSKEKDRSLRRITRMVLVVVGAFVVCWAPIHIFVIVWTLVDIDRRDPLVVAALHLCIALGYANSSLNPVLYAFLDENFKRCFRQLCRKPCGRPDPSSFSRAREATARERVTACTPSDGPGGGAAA
Sequence of Beta-galactosidase (Q8VNN2 whole entry): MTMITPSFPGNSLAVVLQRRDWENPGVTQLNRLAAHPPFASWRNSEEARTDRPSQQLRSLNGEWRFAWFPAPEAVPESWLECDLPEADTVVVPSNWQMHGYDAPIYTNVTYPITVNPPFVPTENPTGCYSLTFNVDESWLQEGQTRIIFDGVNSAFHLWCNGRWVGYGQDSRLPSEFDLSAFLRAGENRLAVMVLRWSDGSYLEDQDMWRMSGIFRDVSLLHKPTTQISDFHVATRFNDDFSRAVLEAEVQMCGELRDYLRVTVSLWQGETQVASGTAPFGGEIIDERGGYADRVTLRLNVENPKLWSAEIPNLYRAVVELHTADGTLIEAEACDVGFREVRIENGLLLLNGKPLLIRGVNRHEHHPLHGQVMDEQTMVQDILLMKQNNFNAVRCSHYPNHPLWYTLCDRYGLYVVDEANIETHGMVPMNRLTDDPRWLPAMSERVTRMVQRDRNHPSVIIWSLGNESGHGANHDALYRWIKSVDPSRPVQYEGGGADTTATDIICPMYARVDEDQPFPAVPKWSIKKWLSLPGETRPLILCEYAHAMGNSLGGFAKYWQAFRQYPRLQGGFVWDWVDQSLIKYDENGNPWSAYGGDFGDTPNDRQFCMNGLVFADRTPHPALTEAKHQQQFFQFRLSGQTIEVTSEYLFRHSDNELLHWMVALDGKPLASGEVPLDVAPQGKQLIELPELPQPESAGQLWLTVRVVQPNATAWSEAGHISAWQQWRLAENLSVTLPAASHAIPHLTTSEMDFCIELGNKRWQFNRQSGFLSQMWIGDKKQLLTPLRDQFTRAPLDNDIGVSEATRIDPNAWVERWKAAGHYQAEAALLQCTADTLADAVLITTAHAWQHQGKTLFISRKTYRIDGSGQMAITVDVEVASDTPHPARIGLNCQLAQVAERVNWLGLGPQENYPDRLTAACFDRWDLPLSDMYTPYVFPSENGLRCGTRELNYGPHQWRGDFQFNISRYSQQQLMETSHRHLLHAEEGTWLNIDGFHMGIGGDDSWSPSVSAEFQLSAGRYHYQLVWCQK
Sequence of G-protein coupled receptor 55 (Q9Y2T6 whole entry): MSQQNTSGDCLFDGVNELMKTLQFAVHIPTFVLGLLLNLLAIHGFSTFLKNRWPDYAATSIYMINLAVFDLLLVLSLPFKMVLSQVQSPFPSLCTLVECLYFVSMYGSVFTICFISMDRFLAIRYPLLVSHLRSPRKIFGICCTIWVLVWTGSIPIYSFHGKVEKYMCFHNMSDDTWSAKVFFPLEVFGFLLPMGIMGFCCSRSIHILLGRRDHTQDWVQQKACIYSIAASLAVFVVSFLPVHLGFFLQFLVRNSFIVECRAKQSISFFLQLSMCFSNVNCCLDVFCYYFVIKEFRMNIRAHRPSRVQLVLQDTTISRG
Sequence of Intestinal-type alkaline phosphatase (Mus musculus, UniProt P24822) (P24822 whole entry): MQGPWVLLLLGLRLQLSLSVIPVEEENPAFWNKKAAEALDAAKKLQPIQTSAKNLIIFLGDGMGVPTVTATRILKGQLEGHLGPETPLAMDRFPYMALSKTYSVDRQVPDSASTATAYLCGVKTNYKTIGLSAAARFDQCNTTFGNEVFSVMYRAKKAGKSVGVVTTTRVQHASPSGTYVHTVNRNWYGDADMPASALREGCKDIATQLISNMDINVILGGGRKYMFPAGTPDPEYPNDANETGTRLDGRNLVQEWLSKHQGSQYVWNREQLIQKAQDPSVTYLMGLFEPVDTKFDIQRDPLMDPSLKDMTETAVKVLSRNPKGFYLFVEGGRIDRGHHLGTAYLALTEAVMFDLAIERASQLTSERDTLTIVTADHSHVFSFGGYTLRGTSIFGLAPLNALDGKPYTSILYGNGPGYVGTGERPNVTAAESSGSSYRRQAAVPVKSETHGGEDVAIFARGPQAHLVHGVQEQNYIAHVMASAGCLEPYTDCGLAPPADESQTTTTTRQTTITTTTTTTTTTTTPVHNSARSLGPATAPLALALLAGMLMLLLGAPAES
Sequence of Mu-type opioid receptor (P35372 whole entry): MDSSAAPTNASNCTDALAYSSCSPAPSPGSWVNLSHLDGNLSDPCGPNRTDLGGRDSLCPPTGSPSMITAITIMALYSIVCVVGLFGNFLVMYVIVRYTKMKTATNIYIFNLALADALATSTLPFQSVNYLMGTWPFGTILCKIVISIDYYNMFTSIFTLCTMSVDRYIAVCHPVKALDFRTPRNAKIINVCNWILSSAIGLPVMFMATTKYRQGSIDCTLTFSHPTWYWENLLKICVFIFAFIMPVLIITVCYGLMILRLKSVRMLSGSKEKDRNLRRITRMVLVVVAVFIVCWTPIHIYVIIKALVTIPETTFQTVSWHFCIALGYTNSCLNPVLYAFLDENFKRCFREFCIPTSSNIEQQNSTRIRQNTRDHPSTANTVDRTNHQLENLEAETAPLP

## O=C(O)c1ccccc1C(=O)Nc1ccc(Oc2cccc3ccccc23)cc1
[1]
  EC50: 6.38 µM (active)
[2]
  AC50: 18.8 µM (active)
[3]
  EC50: 10.4 µM (active)
[4]
  EC50: 12.7 µM (active)
[5]
  AC50: > 35 µM (active)
[6]
  AC50: > 35 µM (active)

## Cc1cccc(OCC(=O)NNC(=O)c2ccc3[nH]cnc3c2)c1
[7]
  IC50: > 100 µM (inactive)
[8]
  EC50: 17.7 µM (active)
[9]
  EC50: 9.75 µM (active)
[10]
  AC50: 44 µM (active)
[11]
  EC50: 13.5 µM (active)

## CC(C)c1ccc(NC(=O)CSc2nc3ccsc3c(=O)n2Cc2ccc(C(=O)O)cc2)cc1
[12]
  IC50: 5.68 µM (active)
[13]
  IC50: 11.7 µM (inactive)
[14]
  IC50: 0.561 µM (active)

## O=c1[nH]c(Nc2nc3ccccc3o2)nc2c1CCCC2
[15]
  IC50: > 32 µM
[16]
  EC50: > 32 µM (inactive)
[17]
  IC50: > 32 µM (inactive)
[18]
  EC50: > 32 µM (inactive)
[19]
  AC50: 16.8 µM (active)
[20]
  EC50: > 31.5 µM (inactive)
[21]
  IC50: 5.27 µM (active)
